Assay results from patent US7186703B2, “Derivatives of branched-chain lipophilic molecules and uses thereof” (D-Pharm Ltd., priority 2000, dated 2007).
“And” between values parts separate entries of the source, which are not always exact repeats. Equal entries are not always repeated. Where two headings read alike, the source gives them in different places.

Legend:
[1] = tested on: blood brain barrier (BBB); experiment: BBB permeabilization in rats, Evans blue extravasation into brain; assay type: in vivo, Sprague-Dawley rats; conditions: for MEC: Table 8, sodium salt, in µM; for μg EB/g brain (at EC50): at EC50 (Mannitol at 25%); for MEC (minimal effective concentration): concentration giving 3 μg EB/g brain
[2] = tested on: blood brain barrier (BBB); experiment: BBB permeability to EB-albumin and Fluorescein in normal rat brains; assay type: in vivo; conditions: compounds at EC50 (Mannitol 25%); for Ratio F-Na/EB (mean of individual ratios): control 9.5 ± 1.6; for % EB/g brain: control 0.04 ± 0.01; for Brain fluorescein uptake (% of serum F-Na level): control 0.3 ± 0.08
Outline: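 In normal rats, Evans blue–albumin (70 kD) and fluorescein sodium (376 D) were infused into the external carotid artery over 30 s, with test compounds at their EC50 concentrations or vehicle. EB reported as percent of total per gram brain; fluorescein as percent of serum level.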

[3] = assay type: in vivo; conditions: rats, sodium salt; for LC (minimal concentration that caused death): i.a., viability monitored 24 hours
Experimental: DP-BFA molecules were evaluated for safety and toxicity. Increasing doses of the tested compounds were administered intra-arterially (i.a.) into rats following the protocol described above in Example 17. Animal viability was monitored for 24 hours to evaluate lethal concentrations (LC). LC is defined as the minimal concentration that caused death.
Safety index is defined as the ratio between the lethal dose (LC) and the minimal effective concentration (MEC), wherein MEC corresponds to a calculated concentration of the tested compound that elicits accumulation of three times the amount of Evans blue accumulated in control animals treated with vehicle only, i.e. total accumulation of 3 μg EB. The higher the LC/MEC ratio is, the higher the safety index.

[4] = tested on: Neuro2a neuroblastoma cell line; experiment: MTT cytotoxicity, Neuro2a; assay type: cell-based, mouse; conditions: three days, read-out: EC50 (50% reduction in cell viability)
Experimental: The cytotoxic activity of various phospho-derivatives of branched-chain fatty acids (DP-BFAs) was assayed in vitro in cell cultures that include normal and malignant cell types. The following cell systems were used: • Primary fibroblasts (human) • Normal bone marrow (BM) cells (mouse) • Primary bronchial epithelial cells (human, from Clonetics, cat. no. CC-2541) • Caco-2—colon cancer cell line (human, ATTC, HTB-37) • C6 glioma cell line (rat, ATCC, CRL-2199) • Neuro2a—neuroblastoma cell line (mouse, ATCC, CCL-131) • SKBR-3—breast cancer cell line (human, ATTC, HTB-30) • HL60—myeloid leukemia cell line (human, ATCC, CCL-240) • U937—myeloid leukemia cell line (human)
Cells were seeded in a microtiter plate in MEM containing 2 mM L-glutamine, 100 units/ml penicillin, 100 ug/ml streptomycin and 10% FCS at 37° C. The cultured cells were incubated, during their linear growth phase in the absence (control group) or presence of various DP-BFAs as indicated. The final concentrations of the tested DP-BFAs ranged from 1.5 to 200 microMolars. At the end of the incubation period, which was five days for the bone marrow cells and three days for all the other cell lines, the cytotoxic effect of the added P-BFA on the cells was estimated by using the colorimetric MTT assay. The MTT assay (Mosmann (1983) J. Immunol Methods 65: 55–63) measures mitochondrial reductase activity and serves for quantitative assessment of cellular viability. Drug concentration that causes 50% reduction in cell viability in comparison to the control group, is defined as EC50. The EC50 values of the tested DP-BFA compounds were calculated from dose response curves established for each of the different assayed cell lines.
Each EC50 value is an average of EC50 values derived from 1–5 independent experiments.

[5] = Table 6, rat brains, Evans blue extravasation, read-out: EQ50 (the source's name)

## 2-(4′-Hexadecanoyloxy)ethoxyethyl phosphate [3,12-DEG-PO4]
[1]
  MEC: 3.0 ± 0.5
[2]
  Ratio F-Na/EB (mean of individual ratios): around 9
[3]
  LC (minimal concentration that caused death): 30 ± 5 µM

## CCCCCCCCCCCCC(CCC)C(=O)OCCOCCOP(=O)([O-])OCC[N+](C)(C)C (stereo not shown) [3,12-DEG-PC, 2-(2′-Propyltetradecanoyloxy)ethoxyethylphosphocholine]
[4]; Mus musculus, N2a, 72 h
  EC50: 134 µM
[1]; Table 6
  μg EB/g brain (at EC50): 14 ± 2 μg EB/g brain
  MEC (minimal effective concentration): 15 ± 2 µM
[1]; [5]
  EC50: 70 ± 12 µM
[1]
  MEC: 15 ± 2
[2]
  % EB/g brain: 0.6 ± 0.1%
  Brain fluorescein uptake (% of serum F-Na level): 2.9 ± 0.5 % of the F—Na level in the ser
  Ratio F-Na/EB (mean of individual ratios): 6.8 ± 0.8
[3]
  LC (minimal concentration that caused death): 300 ± 60 µM
  Safety LC/MEC: 20

## CCCCCCCCCCCCC(CCC)C(=O)OCCOCCOP(=O)([O-])[O-].[Na+].[Na+] (stereo not shown) [3,12-DEG-PO4Na2, 2-[2′-(2″-Propyltetradecanoyloxy)-ethoxy]ethyl Disodium Phosphate]
[4]
  EC50: 58 µM
[1]; Table 6
  μg EB/g brain (at EC50): 18 μg EB/g brain and 18 ± 3 μg EB/g brain
  MEC (minimal effective concentration): 3.3 µM and 3.3 ± 0.5 µM
[1]; [5]
  EC50: 20 µM
[2]
  % EB/g brain: 1.4 ± 0.2%
  Brain fluorescein uptake (% of serum F-Na level): 9.0 ± 1.4 % of the F—Na level in the ser
  Ratio F-Na/EB (mean of individual ratios): 9.0 ± 1.2

## CCCCCCCCCCCCC(CCC)C(=O)OCCOP(=O)([O-])OCC[N+](C)(C)C (stereo not shown) [3,12-MEG-PC, 2-(2′-Propyltetradecanoyloxy)ethylphosphocholine]
[4]; Mus musculus, N2a, 72 h
  EC50: 70 µM
[1]; Table 6
  μg EB/g brain (at EC50): 15 ± 2 μg EB/g brain
  MEC (minimal effective concentration): 10 ± 1 µM
[1]; [5]
  EC50: 19.5 ± 1.5 µM
[1]
  MEC: 10 ± 1
[2]
  % EB/g brain: 0.9 ± 0.2%
  Brain fluorescein uptake (% of serum F-Na level): 5.2 ± 0.8 % of the F—Na level in the ser
  Ratio F-Na/EB (mean of individual ratios): 6.9 ± 0.1
[3]
  LC (minimal concentration that caused death): 15 ± 2 µM
  Safety LC/MEC: 1.5

## CCCCCCCCCCCCC(CCC)C(=O)[O-].[Na+] (stereo not shown) [3,12-Na, reference compound]
[4]
  EC50: 76 µM
[1]; Evans blue extravasation in rat brain, 3,n-type BFAs
  permeabilization of the BBB (FIG. 1, in words): active
[1]; Table 5
  MEC (minimal effective concentration): 6.5 ± 0.7
[1]; Table 5, rat brain, intracarotid infusion, read-out: EC50 (Evans Blue extravasation)
  EC50: 20 ± 3 µM
[1]
  MEC: 6.5 ± 0.7
[2]
  % EB/g brain: 1.8 ± 0.2%
  Brain fluorescein uptake (% of serum F-Na level): 6.4 ± 1.1 % of the F—Na level in the ser
  Ratio F-Na/EB (mean of individual ratios): 4.9 and 4.9 ± 0.9
[3]
  LC (minimal concentration that caused death): 40 ± 10 µM
  Safety LC/MEC: 6.1

## CCCCCCCCCCCCC(CCC)OP(=O)([O-])OCC[N+](C)(C)C (stereo not shown) [3,12-PC, 4-Hexadecanyl phosphocholine]
[1]; Table 6
  μg EB/g brain (at EC50): 10 ± 1 μg EB/g brain
  MEC (minimal effective concentration): 23 ± 4 µM
[1]; [5]
  EC50: 76 ± 14 µM
[1]
  MEC: 23 ± 4
[2]
  % EB/g brain: 0.8 ± 0.1%
  Brain fluorescein uptake (% of serum F-Na level): 3.0 ± 0.5 % of the F—Na level in the ser
  Ratio F-Na/EB (mean of individual ratios): 7.8 ± 1.3
[3]
  LC (minimal concentration that caused death): 80 ± 16 µM
  Safety LC/MEC: 3.5
